Data reported in patent publication US9295672B2, “Optically active pyrazolylaminoquinazoline, and pharmaceutical compositions and methods of use thereof” (Ambit Biosciences Corp., priority 2010, dated 2016).
pIC50: −log10 of the molar value.

Legend:
phosphodiesterase PDE4 = test: Inhibition of phosphodiesterase PDE4; type: biochemical; conditions: human U937 cells; read-out: IC50 against phosphodiesterase PDE4
Protocol: Human U937 cells were used in this assay. The final DMSO concentration in the assay was about 1%. The assay was pre-incubated at 25° C. for 15 min and then incubated at 25° C. for 20 min in an incubation buffer (50 mM Tris-HCl, pH 7.5, 5 mM MgCl2). The assay was quantitated by measuring the amount of [^3H]adenosine.

[1] = Solubility tests of the ketone substrate in solvents; type: physicochemical; conditions: 20 ° C.
Protocol: Solubility tests were conducted by adding (4-fluorophenyl)(4-(5-methyl-4H-pyrazol-3-ylamino)quinazolin-2-yl)methanone in small portions to a number of solvents until a suspended solid persisted. A number of solvents were selected for this study based on their suitability as co-solvents for the reaction.

[2] = Solubility tests of ketone, alcohol and their mixture in IPA/DMSO/water at 70° C.; type: physicochemical; conditions: 1.113 g of material at 70° C., IPA 4 mL, Water 0.5 mL
Protocol: The aim of these experiments was to find the minimum amount of DMSO necessary to dissolve reagents and create homogeneous reaction mixture. One tube contained starting material, the second one a mixture of starting material and product (1/1) to simulate situation when reaction is half complete and the third tube contained product. Experiments were started in 5 mL of IPA/DMSO/water (8/1/1), where none of the mixtures was soluble at 70° C. DMSO was then added dropwise until full solubility could be reached. […] At these conditions, starting material was still partially undissolved. This experiment was used to determine the necessary amounts of DMSO to create a homogeneous reaction mixture (upon keeping the original quantities of IPA and water).

[3] = cynomolgus monkey, in vivo
[4] = biological target: human adenosine A3 receptor (Homo sapiens (Human), UniProt P0DMS8); test: Adenosine A3 receptor radioligand binding assay ([125I] AB-MECA)
Sequence of human adenosine A3 receptor (P0DMS8 whole entry): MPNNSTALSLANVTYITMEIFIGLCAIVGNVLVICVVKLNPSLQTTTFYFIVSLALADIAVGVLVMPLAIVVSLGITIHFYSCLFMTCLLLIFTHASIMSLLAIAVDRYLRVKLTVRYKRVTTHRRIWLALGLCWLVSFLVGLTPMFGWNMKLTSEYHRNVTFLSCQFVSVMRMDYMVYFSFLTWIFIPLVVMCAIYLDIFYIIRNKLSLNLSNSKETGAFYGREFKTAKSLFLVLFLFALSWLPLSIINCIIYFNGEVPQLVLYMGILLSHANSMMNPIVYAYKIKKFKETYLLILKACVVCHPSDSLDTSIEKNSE
Protocol: Incubations of a range of concentration of each compound were carried out in duplicates for 1 h at 25° C. in 25 mM HEPES, pH 7.4, 5 mM MgCl2, 1 mM CaCl2, 0.1% BSA, in the presence of 0.5 nM [^125I] AB-MECA. Non-specific binding was determined in the presence of 1 μM IB-MECA.

## Cc1cc(Nc2nc(C(O)c3ccc(F)cc3)nc3ccccc23)n[nH]1 (racemic) [Racemate]
Phosphodiesterase PDE4
  pIC50: 5.60

## CC1=NN=C(Nc2nc(C(=O)c3ccc(F)cc3)nc3ccccc23)C1 [(4-fluorophenyl)(4-(5-methyl-4H-pyrazol-3-ylamino)quinazolin-2-yl)methanone]
[1]; solvent DMSO
  Solubility: 12000 to 149000 µg/mL
[1]; solvent EtOAc
  Solubility: <6000 µg/mL
[1]; solvent IPA-H2O (9:1)
  Solubility: <7000 µg/mL
[1]; solvent PhMe
  Solubility: <9000 µg/mL
[1]; solvent THF
  Solubility: <17000 µg/mL

## CCO [Alcohol]
[2]; DMSO 0.5 mL
  Result (solubility test): Not dissolved
[2]; DMSO 5.5 mL
  Result (solubility test): Dissolved
[2]; DMSO 7.5 mL
  Result (solubility test): Dissolved

## Cc1cc(Nc2nc(C(=O)c3ccc(F)cc3)nc3ccccc23)n[nH]1 [Ketone]
[2]; DMSO 0.5 mL
  Result (solubility test): Not dissolved
[2]; DMSO 5.5 mL
  Result (solubility test): Not dissolved
[2]; DMSO 7.5 mL
  Result (solubility test): Not dissolved

## Cc1cc(Nc2nc([C@H](O)c3ccc(F)cc3)nc3ccccc23)n[nH]1 [R-isomer]
[3]; male
  share of the Cmax and AUC values determined for the racemic compound: over 85%
[4]
  Hill Coefficient: 1.14

## Cc1cc(Nc2nc([C@@H](O)c3ccc(F)cc3)nc3ccccc23)n[nH]1 [S-isomer]
[3]; po
  proportion of both enantiomers in plasma: almost equal proportions
[4]
  Hill Coefficient: 0.811
